SMILES strings stand for the structures.

The record followed here is patent US20260234144A1 (TAY THERAPEUTICS LIMITED, priority 2023, published 2026).

The assay concerns R223X stop codon in the mutated luciferase gene, ADXC8 luciferase reporter cell line. In words: cells. It is filed as cell-based. Particulars: ADXC8 cells, 24 hours; for Emax / EC (100% of 200 uM G418 response): 24 h; for Emax: read-out: Fold Over Control, maximum fold response relative to 200 μM G418; for EC (100% of 200 uM G418 response): read-out: pC100%, negative logarithm of the concentration giving the same response as 200 μM G418; for pC100%: negative logarithm of the concentration giving the same response as 200 μM G418; for Fold Over Control: maximum fold response relative to 200 μM G418.

Consider `CNc1nc(N[C@H]2CN(C)C[C@H]2O)nc2nc(C)cc(C)c12` [Example 359], for which the Emax is 100 to 3000% and the EC (100% of 200 uM G418 response) was in the range of 10 to 100 µM.
With `Nc1nc(NC23CCN(CC2)CC3)nc2nc(-c3ccccc3)c3c(c12)CCC3` [Example 127, 6-phenyl-N^3-(quinuclidin-4-yl)-8,9-dihydro-7H-cyclopenta[4,5]pyrido[2,3-d]pyrimidine-1,3-diamine], the Emax is 100 to 3000% and the EC (100% of 200 uM G418 response) fell in the range of 0.1 to 1 µM.
`CNc1nc(N[C@@H]2CN(C)C[C@H]2C)nc2nc(C)cc(C)c12` [Example 378]: the Emax is 100 to 3000% and the EC (100% of 200 uM G418 response) lay within 1 to 10 µM.
Regarding `CN1CCC(Nc2nc(N)c3ccc(Cl)nc3n2)CC1` [Example 23, 7-chloro-N^2-(1-methylpiperidin-4-yl)pyrido[2,3-d]pyrimidine-2,4-diamine], the Emax fell in the range of 100 to 3000% and the EC (100% of 200 uM G418 response) lay within 10 to 100 µM.
Take `Cc1c2c(nc3nc(N[C@H]4CNC[C@@H]4O)nc(N(C)C)c13)CCC2` [Example 553]: the Emax is 100 to 3000% and the EC (100% of 200 uM G418 response) was in the range of 10 to 100 µM.
Take `Cc1cc(C)c2c(N)nc(NC34CNCC3C4)nc2n1` (single isomer, unassigned) [Example 259, N^2-(3-azabicyclo[3.1.0]hexan-1-yl)-5,7-dimethylpyrido[2,3-d]pyrimidine-2,4-diamine]: the Emax lay in the range of 100 to 3000% and the pC100% entry is “++ (pC100% > 5.0 ≤ 6.0)”.
For `CNc1nc(N[C@H]2CCCN(C)CC2)nc2nc(C)cc(C)c12` [Example 386], the Emax lay within 100 to 3000% and the EC (100% of 200 uM G418 response) fell in the range of 1 to 10 µM.
On the same counts, the results for `Cc1cc(C)c2c(N)nc(NCCN3CCC4(CCOCC4)C3)nc2n1` [Example 165] are 0 to 100% and more than 31.6 µM.
For the molecule `Cc1cc(C)c2c(N)nc(NCCN3CC(F)(F)C3)nc2n1` [Example 169], the Emax was 0 to 100% and the EC (100% of 200 uM G418 response) was more than 31.6 µM.
On the same counts, the results for `CN1CCC(Nc2nc(N)c3cc(Br)cnc3n2)CC1` [Example 20, 6-bromo-N^2-(1-methylpiperidin-4-yl)pyrido[2,3-d]pyrimidine-2,4-diamine] are 100 to 3000% and 10 to 100 µM.
On the same counts, the results for `Cc1cc(C)c2c(N)nc(NC3C[C@H]4CCC[C@@H](C3)N4C)nc2n1` (stereo partly drawn) [Example 211] are 100 to 3000% and 1 to 10 µM.
For the molecule `CN1CCC(Nc2nc(N)c3ccc(-c4ccc(C(=O)N(C)C)cc4)nc3n2)CC1` [Example 71], the Emax is 0 to 100% and the EC (100% of 200 uM G418 response) was more than 100 µM.
As for `COc1ccc(CCN2CCC(Nc3nc(N)c4c(C)cc(C)nc4n3)CC2)cc1` [Example 201], the Emax fell in the range of 100 to 3000% and the EC (100% of 200 uM G418 response) lay within 1 to 10 µM.
On the same counts, the results for `C=C(C)c1cnc2nc(NC3CCN(C)CC3)nc(N)c2c1` [Example 397] are 100 to 3000% and 1 to 10 µM.
In the same order, the values of `Cc1cc(C)c2c(NC3CCCC3)nc(N[C@@H]3CCNC3)nc2n1` [Example 324] are 0 to 100% and more than 31.6 µM.
`CNc1nc(N[C@H]2CN[C@H](CO)C2)nc2nc(C)cc(C)c12` [Example 415]: the EC (100% of 200 uM G418 response) was in the range of 1 to 10 µM.
As for `CNc1nc(N[C@H]2CNC[C@H]2OC)nc2nc(C)cc(C)c12` [Example 370], the Emax was 100 to 3000% and the EC (100% of 200 uM G418 response) was in the range of 1 to 10 µM.
In the same order, the values of `CN1CCC(Nc2nc(N)c3ccc(-c4cccc(C(N)=O)c4)nc3n2)CC1` [Example 70] are 100 to 3000% and 10 to 100 µM.
On the same counts, the results for `Cc1cc(C)c2c(N)nc(NCCN3CCNC3=O)nc2n1` [Example 160] are 0 to 100% and more than 100 µM.
On the same counts, the results for `Cc1c2c(nc3nc(NC4CCN(Cc5ccc(C#N)cc5F)CC4)nc(N)c13)CCC2` [Example 649] are 100 to 3000% and 1 to 10 µM.
On to `CNc1nc(NC2CNCC2C(F)F)nc2nc(C)cc(C)c12` (single isomer, unassigned) [Example 430], for which the pC100% result is recorded as “++ (pC100% > 5.0 ≤ 6.0)”.
Turning to `Cc1c2c(nc3nc(NC4CCN(Cc5ccc(B(O)O)cc5)CC4)nc(N)c13)CCC2` [Example 668], the Emax was in the range of 100 to 3000% and the EC (100% of 200 uM G418 response) was in the range of 1 to 10 µM.
Take `CNc1nc(N[C@H]2CN(C)CC[C@H]2OC)nc2nc(C)cc(C)c12` [Example 591]: the Emax fell in the range of 100 to 3000% and the EC (100% of 200 uM G418 response) fell in the range of 0.1 to 1 µM.
In the same order, the values of `[2H]C([2H])([2H])Nc1nc(NC2CCN(C)CC2)nc2nc(C)cc(C)c12` [Example 328] are 100 to 3000% and 1 to 10 µM.
In the same order, the values of `Cc1cc(C)c2c(N)nc(NCCCN3CC4(CCCO4)C3)nc2n1` [Example 192] are 0 to 100% and more than 31.6 µM.
In the same order, the values of `Cc1nc2nc(NC34CCN(CC3)CC4)nc(N)c2c2c1CCC2` [Example 272] are 100 to 3000% and 0.1 to 1 µM.
For the molecule `CNc1nc(NC2CNCC2(F)F)nc2nc(C)cc(C)c12` (single isomer, unassigned) [Example 438], the “Fold Over Control” value is listed as “# (Fold over Ctrl ≥ 0 ≤ 1)” and the pC100% result is “* (pC100 ≤ 4.5)”.
`Cc1cc(C)c2c(N)nc(NCC(C)(C)CN(C)C)nc2n1` [Example 149]: the Emax lay within 0 to 100% and the EC (100% of 200 uM G418 response) was more than 31.6 µM.
On the same counts, the results for `Cc1nc2nc(NC3CCN(C)CC3)nc(N)c2c(C)c1-c1cnn(C)c1` [Example 678] are 0 to 100% and more than 100 µM.
In the same order, the values of `CNc1nc(N[C@H]2CN(Cc3ccccc3)C[C@@H]2O)nc2nc(C)cc(C)c12` [Example 622] are 100 to 3000% and 1 to 10 µM.
On the same counts, the results for `Cc1cc(C)c2c(N)nc(N[C@@H]3CN4CCC3CC4)nc2n1` [Example 398] are 0 to 100% and more than 31.6 µM.
Regarding `Cc1cc(-c2ccccc2)nc2nc(NC3CCN(C)CC3)nc(N)c12` [Example 16, 5-methyl-N^2-(1-methylpiperidin-4-yl)-7-phenylpyrido[2,3-d]pyrimidine-2,4-diamine], the EC (100% of 200 uM G418 response) lay within 0.1 to 1 µM.
In the case of `Cc1cc(C)c2c(N)nc(NCCNCC(F)F)nc2n1` [Example 168], the Emax was in the range of 100 to 3000% and the EC (100% of 200 uM G418 response) was 10 to 100 µM.
In the case of `CN1CCC(Nc2nc(N)c3ccc(-c4cccc(S(C)(=O)=O)c4)nc3n2)CC1` [Example 97], the EC (100% of 200 uM G418 response) fell in the range of 10 to 100 µM.
Still for that read-out and setting: the same measure for `CNc1cc(N[C@H]2CNC[C@H]2F)nc2nc3c(c(C)c12)CCC3` [Example 633]: 1 to 10 µM.
For the molecule `CNc1nc(NC2(CO)CCNC2)nc2nc(C)cc(C)c12` (single isomer, unassigned) [Example 441], the “Fold Over Control” value is listed as “## (Fold over Ctrl > 1 ≤ 30)” and the pC100% entry is on record as “++ (pC100% > 5.0 ≤ 6.0)”.
Consider `Cc1cc(C)c2c(N)nc(NC3CC(C)(C)N(C)C(C)(C)C3)nc2n1` [Example 171], for which the Emax lay within 100 to 3000% and the EC (100% of 200 uM G418 response) lay within 10 to 100 µM.
In the same order, the values of `Cc1cc(C)c2c(N)nc(NC3CCN(Cc4ccccc4C(F)F)CC3)nc2n1` [Example 493] are 100 to 3000% and 1 to 10 µM.
In the same order, the values of `[2H]C([2H])(c1ccc(C#N)cc1)N1CCC(Nc2nc(N)c3c(C)cc(C)nc3n2)CC1` [Example 507, 4-((4-((4-amino-5,7-dimethylpyrido[2,3-d]pyrimidin-2-yl)amino)piperidin-1-yl)methyl-d2)benzonitrile] are 100 to 3000% and 0.1 to 1 µM.
With `CNc1nc(N[C@H]2CN(C)C[C@H]2F)nc2nc(C)c(Cl)c(C)c12` [Example 614], the EC (100% of 200 uM G418 response) is 1 to 10 µM.
Take `CN1CCC(Nc2nc(N)c3ccc(C(=O)O)nc3n2)CC1` [Example 236, 4-amino-2-((1-methylpiperidin-4-yl)amino)pyrido[2,3-d]pyrimidine-7-carboxylic acid]: the Emax is 0 to 100% and the EC (100% of 200 uM G418 response) was more than 100 µM.
In the same order, the values of `CN1CCC(Nc2nc(N)c3ccc(-c4cccc(N(C)C)c4)nc3n2)CC1` [Example 52] are 100 to 3000% and 1 to 10 µM.
In the same order, the values of `CNc1nc(N[C@H]2CN(C)C[C@H]2O)nc2nc3c(c(C)c12)CCC3` [Example 361] are 100 to 3000% and 1 to 10 µM.
For `Cc1cc(C)c2c(N)nc(NC3CC4(C3)CN(C(=O)OC(C)(C)C)C4)nc2n1` [Example 134], the Emax was in the range of 0 to 100% and the EC (100% of 200 uM G418 response) was more than 100 µM.
In the same order, the values of `CN1CCC(Nc2nc(N)c3ccc(-c4ccc(C(N)=O)cc4)nc3n2)CC1` [Example 51] are 0 to 100% and more than 100 µM.
For the molecule `Cc1cc(C)c2c(N)nc(NC3CCN(Cc4ccc(C(=O)N(C)C)cc4)CC3)nc2n1` [Example 495], the Emax was in the range of 0 to 100% and the EC (100% of 200 uM G418 response) was more than 31.6 µM.
In the case of `CNc1nc(N[C@]2(C)CCN(C)C2)nc2nc(C)cc(C)c12` [Example 388], the Emax lay within 0 to 100% and the EC (100% of 200 uM G418 response) is more than 31.6 µM.
On the same counts, the results for `Cc1cc(C)c2c(N)nc(NC3C4CNC[C@@H]43)nc2n1` (stereo partly drawn) [Example 203] are 100 to 3000% and 1 to 10 µM.
On the same counts, the results for `Cc1cc(C)c2c(N)nc(NC3COC4(CNC4)C3)nc2n1` (stereo not drawn) [Example 210] are 100 to 3000% and 1 to 10 µM.
With `Cc1cc(C)c2c(N)nc(NC3CCN(Cc4cc(F)cc(F)c4O)CC3)nc2n1` [Example 569], the Emax lay in the range of 100 to 3000% and the EC (100% of 200 uM G418 response) lay in the range of 1 to 10 µM.
On the same counts, the results for `CNc1nc(N[C@@]2(C)CCNC2)nc2nc(C)cc(C)c12` [Example 637] are 0 to 100% and more than 31.6 µM.
